Series [1] deals with T1, M1 (Homo sapiens, UniProt P11229).
T1 sequence (P11229 1-460): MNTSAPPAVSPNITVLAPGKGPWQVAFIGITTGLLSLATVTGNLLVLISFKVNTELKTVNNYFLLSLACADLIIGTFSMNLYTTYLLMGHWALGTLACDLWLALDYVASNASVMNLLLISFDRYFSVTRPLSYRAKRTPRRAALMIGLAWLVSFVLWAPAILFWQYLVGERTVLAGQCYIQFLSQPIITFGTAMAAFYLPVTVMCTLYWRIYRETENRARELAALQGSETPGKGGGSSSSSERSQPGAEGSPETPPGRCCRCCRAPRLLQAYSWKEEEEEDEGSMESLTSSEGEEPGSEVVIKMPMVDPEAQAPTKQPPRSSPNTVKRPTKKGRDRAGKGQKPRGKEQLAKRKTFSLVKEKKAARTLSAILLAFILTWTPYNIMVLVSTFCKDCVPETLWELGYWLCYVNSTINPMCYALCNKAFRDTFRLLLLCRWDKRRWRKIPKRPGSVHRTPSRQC
Briefly: Calcium mobilization, hM1-CHO cells, PAM mode. It counts as cell-based.

In series [2] the target is T2, rat M1 (Rattus norvegicus, UniProt P08482).
T2 sequence (P08482 1-460): T1 sequence (P11229 1-460) with A5V, T254S, P309S, R320K, A337G, I413V
The series is described as follows: Calcium mobilization, rM1-CHO cells, PAM mode. It counts as cell-based. The settings on record: EC20 acetylcholine. (A change in cytosolic calcium serves as a functional read-out for many receptors and channels.)

For series [3], the target named is T3, mouse M1 (Mus musculus, UniProt P12657).
T3 sequence (P12657 1-460): T1 sequence (P11229 1-460) with A5V, T254S, R320K, A337G, I413V
Briefly: Calcium mobilization, mM1-CHO cells, PAM mode. It counts as cell-based.

Series [4] addresses T1, M1. The series is described as follows: Calcium mobilization, hM1-CHO cells, agonist mode. The format is cell-based.
The target in series [5] is T2, rat M1. The series is described as follows: Calcium mobilization, rM1-CHO cells, agonist mode. It counts as cell-based.
Series [6] concerns the target T3, mouse M1. The series is described as follows: Mouse M1 agonist activity, calcium mobilization. It counts as cell-based.
Series [7] can be described thus: Mouse brain:plasma partition, discrete i.p. dose. The settings on record: male, C57BL/6J, in vivo, ip, 10 mg/kg.
Series [8] has as its system C57Bl/6 mice. The series is described as follows: Behavioral convulsions, modified Racine scale. The format is in vivo, mouse. The settings on record: 100 mg/kg i.p., 3 h, modified Racine scale (0–5).
Series [9] can be described thus: Mouse brain concentrations after i.p. dosing. The conditions noted are these: 100 mg/kg i.p., mice. It counts as in vivo.
The target in series [10] is T1, M1. Briefly: [3H]-NMS competition binding, human M1 membranes.
Another series concerns the target T4, hM1 (Homo sapiens, UniProt P11229).
T4 sequence (P11229 1-460): T1 sequence (P11229 1-460)
Briefly: Acetylcholine affinity shift at hM1. The format is binding.

The target of series [11] is T1, M1. The series is described as follows: Discover X bias panel: M1 receptor internalization. The format is cell-based.
In series [12] the target is T1, M1. The series is described as follows: Discover X bias panel: β-arrestin recruitment assay. It counts as cell-based. (Recruitment of arrestin is a read-out of receptor activation apart from second messengers.)
Series [13] has as its system 68 GPCRs, ion channels, and transporters. Briefly: Eurofin Lead Profiling radioligand binding panel. The conditions noted are these: 10 μM, 68 targets.
For series [14], the system named is C57Bl/6 mice. The series is described as follows: Spontaneous locomotor activity. It counts as in vivo, mouse. The settings on record: 1–10 mg/kg i.p.
Series [15] deals with mice. The series is described as follows: Amphetamine-induced hyperlocomotion in mice. The format is in vivo, mouse. The settings on record: 1–10 mg/kg i.p., amphetamine 3 mg/kg s.c.
In another series the test system is SD rats. The series is described as follows: Amphetamine-induced hyperlocomotion in rats. The settings on record: 30 mg/kg i.p., amphetamine 1 mg/kg s.c. It counts as in vivo, rat.
A further series deals with rats. The series is described as follows: Novel object recognition task. The conditions noted are these: rats, 1, 3, and 10 mg/kg i.p., 30 min pretreatment, assessed 24 h later. The format is in vivo, rat.
For series [16], the system named is mice. The series is described as follows: Modified Irwin Toxicology Battery. The settings on record: 100 mg/kg i.p. The format is in vivo.
For series [17], the system named is mice. The conditions noted are these: cited from earlier work.

Substitutions are numbered along the chain they refer to. “Also recorded” adds a separate entry of the source. Some results are limits rather than exact numbers.

For the compound `Cn1cc(-c2ccc(Cn3cc(C(=O)N[C@H]4CCCC[C@@H]4O)c4c(F)cc(F)cc43)cn2)cn1` [Compound 28a, 4,6-Difluoro-N-(1S,2S)-2-hydroxycyclohexyl-1-((6-(1-methyl-1H-pyrazol-4-yl)pyridine-3-yl)methyl)-1H-indole-3-carboxamide], the EC50 is 214 nM at M1 [1]; 141 nM at rat M1 [2] (rM1 EC50 (nM), PAM mode); 138 nM at rat M1 [2] (rM1 pEC50, PAM mode, ± SEM); 155 nM on mouse M1 [3]; 4.8 µM at M1 [4] (hM1 EC50 (μM), agonist, hM1-CHO cells); 4.68 µM on M1 [4] (hM1 pEC50, agonist, hM1-CHO cells, ± SEM). The EC50 at rat M1 [5] is 3980 nM; at mouse M1 [6] it was 450 nM; at M1 [11], above 10000 nM. For the same compound, the “hACh Max (%)” value on M1 [1] (PAM mode, hM1-CHO cells, EC20 acetylcholine, ± SEM) was 86±1%. Also, the “rACh Max (%)” value at rat M1 [2] (PAM mode, ± SEM) came to 92 ± 4%. For the same compound, the “mACh Max (%)” value at mouse M1 [3] (PAM mode, mM1-CHO cells, EC20 acetylcholine, ± SEM) was determined as 79 ± 1%. The “hACh Max (%), agonist” value on M1 [4] (hM1-CHO cells, ± SEM) amounted to 56 ± 14%. Also, the “fold weaker M1 agonist than 16” value on M1 [4] (human and rat M1) is on record as 7 fold. On rat M1 [5] (agonist mode, rM1-CHO cells, ± SEM), the “rACh Max (%), agonist” value amounted to 68 ± 9%. Moreover, the “mouse M1 agonist % ACh Max” value on mouse M1 [6] (agonist activity at mouse M1) turned out to be 86%. This compound registered a Kp at 0.25 h in [7] of 4.84. In series [7], this compound returned a Kp uu at 0.25 h of 2.61. Besides, the behavioral convulsions entry with C57Bl/6 mice [8] is reported as “did not display observable behavioral seizure activity; also recorded: neither difluoro indole 28a nor 28c (both regioisomeric N-Me pyrazoles) induced behavioral convulsions”. Also, the “total maximum brain concentration” value in series [9] came to 49.9 µM. Also, the “unbound maximum brain concentration” value in series [9] is on record as 649 nM. Also, the “displacement of orthosteric radioligand [3H]-NMS” value at M1 [10] was “slight inhibition of binding of the orthosteric radioligand at high concentrations; also recorded: weakly displaced”. The “fold shift in ACh potency vs DMSO control” value at hM1 (0.3 μM PAM) amounted to 11 fold; at hM1 (1.0 μM PAM), 58 fold; at hM1 (10 μM PAM) it was 178 fold. Besides, the “M1 PAM potency and efficacy in β-arrestin recruitment” value at M1 [12] is “comparable M1 PAM potency and efficacy”. The “percent inhibition in ancillary pharmacology panel” value in series [13] is listed as at most 50%. Besides, the “effect on spontaneous (basal) locomotor activity” value in the series with C57Bl/6 mice [14] is “significantly less effect on spontaneous locomotor activity”; in the series on C57Bl/6 mice [14] (listed as VU6004256), “decreased locomotor activity at the highest dose of 10 mg/kg”. Moreover, the “reversal of amphetamine-induced hyperlocomotion (AHL)” value is recorded as “did not reverse AHL in mice” with mice [15] and “no effect” with SD rats. Further, the “recognition memory, novel object recognition” value in the series with rats is given as “dose-dependently enhanced recognition memory”. In addition, the “adverse effects, Modified Irwin Toxicology Battery” value with mice [16] (100 mg/kg) is recorded as “no pronounced cholinergic effects”; in the series on mice [16] (listed as VU6004256, 100 mg/kg), “did not cause significant observable adverse effects”.
As for `CCCCCCOc1nsnc1C1=CCCN(C)C1` [xanomeline], in the series on mice [17], the “attenuation of amphetamine-induced activity in M4 knockout mice” value is listed as “absent”.

For orientation: EC50 means the concentration giving half of the maximal effect. The Kp is the ratio of the level in a tissue or fluid to that in plasma or blood.
